Assay results from US20230322747A1, “OXADIAZOLE HDAC6 INHIBITORS AND USES THEREOF” (Eikonizo Therapeutics, Inc., priority 2022, published 2023).

Key:
Human HDAC6 = Human HDAC6 (Homo sapiens (Human), UniProt Q9UBN7); assay: HDAC6 enzymatic activity assay (Caliper endpoint or fluorogenic format); assay type: biochemical; conditions: for IC50: in vitro enzymatic; for Selectivity (6 v 8) (fold): ratio of HDAC8 IC50/HDAC6 IC50
Human HDAC8 = Human HDAC8 (Homo sapiens (Human), UniProt Q9BY41); assay: Caliper endpoint assay for HDAC8 enzymatic activity; assay type: biochemical; conditions: in vitro enzymatic
Human HDAC8, sequence (Q9BY41 whole entry): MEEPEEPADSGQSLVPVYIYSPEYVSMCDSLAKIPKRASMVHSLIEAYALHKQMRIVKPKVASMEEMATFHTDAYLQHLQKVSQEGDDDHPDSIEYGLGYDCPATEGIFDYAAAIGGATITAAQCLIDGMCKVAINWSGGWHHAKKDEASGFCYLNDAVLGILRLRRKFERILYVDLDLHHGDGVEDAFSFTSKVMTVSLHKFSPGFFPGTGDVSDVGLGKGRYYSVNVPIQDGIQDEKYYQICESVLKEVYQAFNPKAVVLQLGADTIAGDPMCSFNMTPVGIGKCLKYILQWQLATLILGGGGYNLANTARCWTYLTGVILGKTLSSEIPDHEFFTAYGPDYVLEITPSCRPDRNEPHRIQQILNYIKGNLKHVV

Human HDAC6, sequence (Q9UBN7 whole entry): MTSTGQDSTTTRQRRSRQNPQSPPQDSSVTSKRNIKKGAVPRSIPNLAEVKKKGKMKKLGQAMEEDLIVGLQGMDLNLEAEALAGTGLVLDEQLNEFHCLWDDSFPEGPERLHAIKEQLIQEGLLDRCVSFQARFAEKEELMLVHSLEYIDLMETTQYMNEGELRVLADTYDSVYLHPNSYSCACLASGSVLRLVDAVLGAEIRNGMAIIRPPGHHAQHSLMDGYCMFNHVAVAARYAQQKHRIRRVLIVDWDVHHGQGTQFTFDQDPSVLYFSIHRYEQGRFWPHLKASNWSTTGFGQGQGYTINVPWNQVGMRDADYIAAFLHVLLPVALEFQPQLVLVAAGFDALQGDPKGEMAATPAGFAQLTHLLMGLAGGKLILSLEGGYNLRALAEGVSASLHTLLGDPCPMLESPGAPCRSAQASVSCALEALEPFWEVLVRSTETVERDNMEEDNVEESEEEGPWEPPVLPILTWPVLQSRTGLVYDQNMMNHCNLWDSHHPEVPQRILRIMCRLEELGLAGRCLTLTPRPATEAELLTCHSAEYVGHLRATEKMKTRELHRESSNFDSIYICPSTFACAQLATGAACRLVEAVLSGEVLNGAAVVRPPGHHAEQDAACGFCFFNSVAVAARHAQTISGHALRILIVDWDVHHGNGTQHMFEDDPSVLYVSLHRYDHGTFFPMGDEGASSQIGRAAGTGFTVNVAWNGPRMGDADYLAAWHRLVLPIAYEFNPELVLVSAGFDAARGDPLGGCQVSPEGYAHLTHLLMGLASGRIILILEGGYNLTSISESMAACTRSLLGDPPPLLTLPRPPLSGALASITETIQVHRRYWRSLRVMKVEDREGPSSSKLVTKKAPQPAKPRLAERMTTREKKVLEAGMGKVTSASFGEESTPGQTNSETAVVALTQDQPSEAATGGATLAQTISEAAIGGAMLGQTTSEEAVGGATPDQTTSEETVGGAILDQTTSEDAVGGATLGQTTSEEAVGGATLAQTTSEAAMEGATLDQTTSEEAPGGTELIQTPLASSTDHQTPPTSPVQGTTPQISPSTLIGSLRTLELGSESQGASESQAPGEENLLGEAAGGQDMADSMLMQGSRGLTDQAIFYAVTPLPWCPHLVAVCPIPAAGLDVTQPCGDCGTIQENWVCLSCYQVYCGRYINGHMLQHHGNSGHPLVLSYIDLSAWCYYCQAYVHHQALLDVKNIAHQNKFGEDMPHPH

IC50 (Human HDAC6) [nM] | Selectivity (6 v 8) (fold) (Human HDAC6) | IC50 (Human HDAC8) [nM] | Structure (SMILES)
1 to 100 | V (V: >1000) | > 100000 | Fc1ccc(Cl)cc1OCc1ccc(-c2nnc(C(F)F)o2)cn1 [Compound 2, 2-(6-((5-chloro-2-fluorophenoxy)methyl)pyridin-3-yl)-5-(difluoromethyl)-1,3,4-oxadiazole]
1 to 100 | V (V: >1000) | > 100000 | Fc1cc(Cl)ccc1OCc1ccc(-c2nnc(C(F)F)o2)cn1 [Compound 3, 2-(6-((4-chloro-2-fluorophenoxy)methyl)pyridin-3-yl)-5-(difluoromethyl)-1,3,4-oxadiazole]
1 to 100 | V (V: >1000) | > 100000 | Fc1ccc(OCc2ccc(-c3nnc(C(F)F)o3)cn2)c(Cl)c1 [Compound 4, 2-(6-((2-chloro-4-fluorophenoxy)methyl)pyridin-3-yl)-5-(difluoromethyl)-1,3,4-oxadiazole]
1 to 100 | V (V: >1000) | > 100000 | Fc1ccc(OCc2ccc(-c3nnc(C(F)F)o3)cn2)c(F)c1 [Compound 5, 2-(difluoromethyl)-5-(6-((2,4-difluorophenoxy)methyl)pyridin-3-yl)-1,3,4-oxadiazole]
1 to 100 | V (V: >1000) | > 100000 | Fc1ccc(OCc2ncc(-c3nnc(C(F)F)o3)cc2F)cc1 [Compound 6, 2-(difluoromethyl)-5-(5-fluoro-6-((4-fluorophenoxy)methyl)pyridin-3-yl)-1,3,4-oxadiazole]
1 to 100 | V (V: >1000) | > 100000 | Fc1ccc(Cl)c(OCc2ccc(-c3nnc(C(F)F)o3)cn2)c1 [Compound 7, 2-(6-((2-chloro-5-fluorophenoxy)methyl)pyridin-3-yl)-5-(difluoromethyl)-1,3,4-oxadiazole]
1 to 100 | V (V: >1000) | > 100000 | FC(F)c1nnc(-c2ccc(COc3ccc(Cl)cc3)nc2)o1 [Compound 8, 2-(6-((4-chlorophenoxy)methyl)pyridin-3-yl)-5-(difluoromethyl)-1,3,4-oxadiazole]
1 to 100 | V (V: >1000) | > 100000 | Fc1ccc(OCc2ccc(-c3nnc(C(F)F)o3)cn2)cc1F [Compound 9, 2-(difluoromethyl)-5-(6-((3,4-difluorophenoxy)methyl)pyridin-3-yl)-1,3,4-oxadiazole]
1 to 100 | V (V: >1000) | > 100000 | FC(F)c1nnc(-c2ccc(COc3cccc4cccnc34)nc2)o1 [Compound 10, 2-(difluoromethyl)-5-(6-((quinolin-8-yloxy)methyl)pyridin-3-yl)-1,3,4-oxadiazole]
1 to 100 | V (V: >1000) | > 100000 | FC(F)c1nnc(-c2ccc(COc3cccc4ccccc34)nc2)o1 [Compound 11, 2-(difluoromethyl)-5-(6-((naphthalen-1-yloxy)methyl)pyridin-3-yl)-1,3,4-oxadiazole]
1 to 100 | V (V: >1000) | > 100000 | Fc1ccc(OCc2ccc(-c3nnc(C(F)F)o3)cn2)cc1 [Compound 12, 2-(difluoromethyl)-5-(6-((4-fluorophenoxy)methyl)pyridin-3-yl)-1,3,4-oxadiazole]
1 to 100 | V (V: >1000) | > 100000 | FC(F)c1nnc(-c2ccc(C(F)(F)Oc3cccc4cccnc34)nc2)o1 [Compound 13, 2-(6-(difluoro(quinolin-8-yloxy)methyl)pyridin-3-yl)-5-(difluoromethyl)-1,3,4-oxadiazole]
100 to 1000 | V (V: >1000) | > 100000 | Fc1ccc(OC(F)(F)c2ccc(-c3nnc(C(F)F)o3)cn2)cc1 [Compound 15, 2-(6-(difluoro(4-fluorophenoxy)methyl)pyridin-3-yl)-5-(difluoromethyl)-1,3,4-oxadiazole]
1 to 100 | V (V: >1000) | > 100000 | FC(F)c1nnc(-c2ccc(COc3ccccn3)nc2)o1 [Compound 16, 2-(difluoromethyl)-5-(6-((pyridin-2-yloxy)methyl)pyridin-3-yl)-1,3,4-oxadiazole]
1 to 100 | V (V: >1000) | 10000 to 100000 | FC(F)c1nnc(-c2ccc(COc3cccnc3)nc2)o1 [Compound 17, 2-(difluoromethyl)-5-(6-((pyridin-3-yloxy)methyl)pyridin-3-yl)-1,3,4-oxadiazole]
1 to 100 |  |  | FC(F)c1nnc(-c2ccc(COc3ccnc(Cl)c3)nc2)o1 [Compound 189, 2-(6-(((2-Chloropyridin-4-yl)oxy)methyl)pyridin-3-yl)-5-(difluoromethyl)-1,3,4-oxadiazole]
1 to 100 |  |  | O=C(Nc1ccccc1)c1cccc(OCc2ccc(-c3nnco3)cn2)c1 [Compound 196, 3-((5-(1,3,4-oxadiazol-2-yl)pyridin-2-yl)methoxy)-N-phenylbenzamide]
1 to 100 |  |  | CNC(=O)c1cccc(OCc2ccc(-c3nnc(C(F)F)o3)cn2)c1 [Compound 197, 3-((5-(5-(difluoromethyl)-1,3,4-oxadiazol-2-yl)pyridin-2-yl)methoxy)-N-methylbenzamide]
1 to 100 |  |  | Cn1nccc1-c1ccc(OCc2ccc(-c3nnc(C(F)F)o3)cn2)cc1 [Compound 199, 2-(Difluoromethyl)-5-(6-((4-(1-methyl-1H-pyrazol-5-yl)phenoxy)methyl)pyridin-3-yl)-1,3,4-oxadiazole]
1 to 100 |  |  | Cn1c(-c2ccc(OCc3ccc(-c4nnc(C(F)F)o4)cn3)cc2)nc2ccccc21 [Compound 200]
1 to 100 |  |  | Cn1c(-c2cccc(OCc3ccc(-c4nnc(C(F)F)o4)cn3)c2)nc2ccccc21 [Compound 201]
1 to 100 |  |  | FC(F)c1nnc(-c2ccc(COc3cnc(C(F)(F)F)nc3)nc2)o1 [Compound 205]
1 to 100 |  |  | FC(F)c1nnc(-c2ccc(COc3cccc(-c4nc5ccccc5[nH]4)c3)nc2)o1 [Compound 206]
1 to 100 |  |  | FC(F)c1nnc(-c2ccc(COc3ccc(-c4nc5ccccc5[nH]4)cc3)nc2)o1 [Compound 207]
1 to 100 |  |  | Cn1cnc2c(OCc3ccc(-c4nnc(C(F)F)o4)cn3)cccc21 [Compound 208]
1 to 100 |  |  | Cn1cnc2ccc(OCc3ccc(-c4nnc(C(F)F)o4)cn3)cc21 [Compound 213]

Structure (SMILES) | IC50 (Human HDAC6) [nM] | Selectivity (6 v 8) (fold) (Human HDAC6) | IC50 (Human HDAC8) [nM]
Fc1ccc(OCc2ncc(-c3nnc(C(F)F)o3)cn2)cc1 [Compound 1, 2-(difluoromethyl)-5-(2-((4-fluorophenoxy)methyl)pyrimidin-5-yl)-1,3,4-oxadiazole] | 1 to 100 | V (V: >1000) | > 100000
FC(F)c1nnc(-c2ccc(COc3ccccc3-c3ccccc3)nc2)o1 [Compound 187, 2-(6-(([1,1′-biphenyl]-2-yloxy)methyl)pyridin-3-yl)-5-(difluoromethyl)-1,3,4-oxadiazole] | 1000 to 10000 |  | 
FC(F)c1nnc(-c2ccc(COc3cccc(-c4ccccc4)c3)nc2)o1 [Compound 188, 2-(6-(([1,1′-Biphenyl]-3-yloxy)methyl)pyridin-3-yl)-5-(difluoromethyl)-1,3,4-oxadiazole] | 100 to 1000 |  | 
